# Assay results as given in patent publication US5563164A, “Phospholipase A2 inhibitors” (Eli Lilly and Company, priority 1995, dated 1996).
# Legend:
# Human Cytosolic PLA2 = target: T1, Human Cytosolic PLA2 (Homo sapiens, UniProt P47712); experiment: Inhibition of Cytosolic Phospholipase A2 (in vitro, [14C]PC/DG sonicated liposomes); type: biochemical; conditions: 37° C., 15 minutes, pH 7.5, 1 mM calcium chloride
# T1 sequence (P47712 1-749): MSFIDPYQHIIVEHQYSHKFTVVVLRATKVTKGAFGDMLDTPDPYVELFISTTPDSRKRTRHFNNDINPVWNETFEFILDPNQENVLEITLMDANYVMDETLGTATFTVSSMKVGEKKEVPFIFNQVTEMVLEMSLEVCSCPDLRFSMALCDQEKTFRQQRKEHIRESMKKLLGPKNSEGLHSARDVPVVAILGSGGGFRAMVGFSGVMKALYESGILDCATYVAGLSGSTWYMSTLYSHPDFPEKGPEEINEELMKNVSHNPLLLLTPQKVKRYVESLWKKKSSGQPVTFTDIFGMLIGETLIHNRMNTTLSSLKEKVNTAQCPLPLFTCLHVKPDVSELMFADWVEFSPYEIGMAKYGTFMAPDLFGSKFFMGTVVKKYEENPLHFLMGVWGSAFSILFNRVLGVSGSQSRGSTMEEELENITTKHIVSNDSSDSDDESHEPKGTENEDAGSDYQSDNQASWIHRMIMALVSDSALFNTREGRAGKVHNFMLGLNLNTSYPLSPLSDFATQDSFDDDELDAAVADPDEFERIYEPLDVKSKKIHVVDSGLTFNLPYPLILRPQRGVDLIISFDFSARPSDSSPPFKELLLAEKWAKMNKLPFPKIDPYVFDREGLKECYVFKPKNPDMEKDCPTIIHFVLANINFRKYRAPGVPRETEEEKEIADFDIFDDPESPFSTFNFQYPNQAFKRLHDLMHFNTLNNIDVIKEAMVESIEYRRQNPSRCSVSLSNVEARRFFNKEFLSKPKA
# Procedure: The biological activity of the compounds of Formula I was evaluated employing an in vitro assay measuring the ability of these compounds to inhibit the activity of cytosolic phospholipase A2. The assay was performed essentially as described in R. Kramer, et al., Journal of Biological Chemistry, 266:5268-5272 (1991) with the exception that varying amounts of the compound of Formula I were added to the reaction mixture.
# The substrate, sonicated liposomes containing 1-palmitoyl-2[^14 C ]arachidonoyl-sn-glycero-3-phosphocholine ([^14 C]PC, 55 mCi/mmole from NEN Research Products) and sn-1,2-dioleoylglycerol (DG, Avanti Polar Lipids, Birmingham, Ala.) at a molar ratio of 2:1, was prepared as follows. [^14 C]PC (20 nmol, 1×10^6 dpm, 50 μg/ml in toluene/ethanol) and DG (10 nmol, 100 μg/ml in chloroform) were dried under nitrogen. The lipids were dispersed in 1 ml of 150 mM sodium chloride, 50 mM HEPES, pH 7.5 (assay buffer) by sonication at 4° C. with a Microson™ probe-sonicator (Heat Systems Ultrasonics) for 4×15 seconds, with 45 second intervals. Bovine serum albumin (essentially fatty acid free, from a 100 mg/ml stock in water, Sigma) was added to a final concentration of 4 mg/ml. Samples to be assayed for cPLA2 activity were incubated with 50 μl liposomes (0.5 nmol [^14 C]PC, 50,000 dpm containing 0.25 nmol of DG) and varying amounts of the compound of Formula I, in a total volume of 0.2 ml of assay buffer containing 1 mM calcium chloride and 1 mM 2-mercaptoethanol. Incubations were carried out at 37° C. for 15 minutes and terminated by adding 2 ml of Dole's reagent (2-propanol/heptane/0.5 M sulfuric acid, 40:10:1 containing 10 μg/ml of stearic acid).
# After mixing, 1.2 ml of heptane and 1 ml of water were added. The mixtures were briefly vortexed and the upper phase transferred to tubes containing 2 ml of heptane and 150 mg of Bio-Sil (Bio-Rad Laboratories) activated at 130° C. before use. The tubes were thoroughly vortexed and centrifuged (1000×g for 5 minutes). The supernatants were decanted into scintillation vials. After addition of 10 ml of a liquid scintillation cocktail (Ready Protein®, Beckman) radioactivity was counted using a Beckman liquid scintillation counter Model LS 7000. High radioactive counts correlate with enzymatic activity.
# The first column provides the example number of the test inhibitor. The second column provides the concentration of the test compound (in micromolar quantities) which inhibits fifty percent of the activity of cytosolic phospholipase A2.
# neuronal cells = conditions: cited from earlier work
Compound,IC50 (Human Cytosolic PLA2) [µM],direct toxicity (other research groups) (neuronal cells; Neurobiology of Aging 1992),"neurotoxicity (neuronal cells; in vitro and in vivo, B. A. Yankner 1989)"
"CCc1cc(-c2ccc(F)cc2)c(O)cc1OCCCOc1ccccc1CCC(=O)NS(C)(=O)=O [Example 2, N-Methanesulfonyl-3-(2-(3-(2-ethyl-4-(4-fluorophenyl)-5-hydroxyphenoxy)propoxy)phenyl)propionamide]",18,,
"CCc1cc(-c2ccccc2)c(O)cc1OCCCCCC(C)(C)c1nn[nH]n1 [Example 4, 2-phenyl-4-ethyl-5-[[6-(2H-tetrazol-5-yl)-6-methylheptyl]oxy]phenol]",39.4,,
"CCc1cc(-c2ccc(F)cc2)c(O)cc1OCCCCOc1ccccc1CCC(=O)O [Example 9, 3-(2-(4-(2-Ethyl-4-(4-fluorophenyl)-5-hydroxyphenoxy)-5-butyloxy)phenyl)propionic acid]",35,,
"CCc1cc(C(C)=O)c(O)cc1OCCCCCC(C)(C)c1nn[nH]n1 [Example 10, 1-[5-ethyl-2-hydroxy-4-[[6-methyl-6-(1H-tetrazol-5-yl)heptyl]oxy]phenyl]ethanone]",43,,
"CCc1cc(CC)c(OCCCCCC(C)(C)c2nn[nH]n2)cc1O [Example 11, 2,4-diethyl-5-[[6-methyl-6-(1H-tetrazol-5yl)heptyl]oxy]phenol]",54,,
"CCCc1c(OCCCOc2cc(O)c(OCC)cc2CC)ccc2c1OC(C(=O)O)CC2 (centres unmarked) [Example 12, 3,4-dihydro-8-propyl-7-[3-(2-ethyl-5-hydroxy-4-ethoxy-phenoxy)propoxy]-2H-1-benzopyran-2-carboxylic acid]",28,,
"β-amyloid peptide: 4500 Dalton protein, major constituent of amyloid plaque cores; in its longest forms 42 or 43 amino acid residues",,unable to consistently demonstrate direct toxicity,neurotoxic in vitro and in vivo

# Second part, led by results:
IC50 (Human Cytosolic PLA2) [µM],Compound,direct toxicity (other research groups) (neuronal cells; Neurobiology of Aging 1992),"neurotoxicity (neuronal cells; in vitro and in vivo, B. A. Yankner 1989)"
17,"CCc1cc(-c2ccc(F)cc2)c(O)cc1OCCCOc1ccccc1CCC(=O)NS(=O)(=O)c1ccccc1 [Example 3, N-Phenylsulfonyl-3-(2-(3-(2-ethyl-4-(4-fluorophenyl)-5-hydroxyphenoxy)propoxy)phenyl)propionamide]",,
12,"CCCc1c(OCCCOc2cc(O)c(-c3ccccc3)cc2CC)cccc1OC(C)C(=O)O (centres unmarked) [Example 5, 2-[3-[3-[(5-Ethyl-2-hydroxy[1, 1'-biphenyl]-4-yl)oxy]propoxy]-2-propylphenoxy]propanoic acid]",,
9,"CCCc1c(OCCCOc2cc(O)c(-c3ccc(F)cc3)cc2CC)ccc2c1OC(C(=O)O)CC2 (centres unmarked) [Example 6, 8-Propyl-7-[3-[4-(4-fluorophenyl)-2-ethyl-5-hydroxyphenoxy]propoxy]-3,4-dihydro-2H-1-benzopyran-2-carboxylic acid]",,
12,"CCCc1c(OCCCOc2cc(O)c(-c3ccc(F)cc3)cc2CC)cccc1Oc1ccccc1C(=O)O [Example 8, 2-[2-Propyl-3-[3-[2-ethyl-4-(4-fluorophenyl)-5-hydroxyphenoxy]propoxy]phenoxy]benzoic acid]",,
13,"CCCc1c(OCCCOc2cc(O)c(C(C)=O)cc2CC)ccc2c1OC(C(=O)O)CC2 (centres unmarked) [Example 13, 7-[3-(4-acetyl-2-ethyl-5-hydroxyphenoxy)propoxy]-3,4-dihydro-8-propyl-2H-1-benzopyran-2-carboxylic acid]",,
14,"CCCc1c(OCCCOc2cc(O)c(C(C)=O)cc2CC)cccc1OC(CC)C(=O)O (centres unmarked) [Example 14, 2-[3-[3-(4-acetyl-2-ethyl-5-hydroxyphenoxy)-propoxy)-2-propylphenoxy]butanoic acid]",,
